The nature of the series: Suitability of BHT as antioxidant for a solution of diclofenac and thiocolchicoside (solubility/precipitation on storage). The format is physicochemical. The settings on record: ordinary storage conditions.

Regarding `Cc1cc(C(C)(C)C)c(O)c(C(C)(C)C)c1` [BHT, 2,6-bis(1,1-dimethylethyl)-4-methylphenol], the “Solubility / precipitation as antioxidant in a solution of diclofenac and thiocolchicoside” value was “poor solubility and precipitation”.

These data come from patent publication US9427446B2, “Stable injectable composition containing diclofenac and thiocolchicoside” (EPIFARMA S.R.L., priority 2012, dated 2016).
